Data taken from patent US20250346943A1, “DEGRADER COMPOUNDS OF QSOX1 mRNA” (UNIVERSITY OF FLORIDA RESEARCH FOUNDATION, INCORPORATED, priority 2022, published 2025).

Legend:
[1] = system: SQSTM1 mRNA; assay: SQSTM1 mRNA abundance by RT-qPCR in MDA-MB-231 cells; format: cell-based, human; settings: 48 h treatment
Experimental: Analysis of mRNA Abundance by RT-qPCR. Unless stated otherwise, all RT-qPCR experiments were performed to measure nascent RNA levels by using Click-it Nascent RNA Capture Kit (Cat #C10365, Thermo Fisher) per the manufacturer's protocols. Briefly, cells were treated with 0.2 mM of ethynyl uridine (EU) in growth medium for 16 h, after which the medium was replaced with fresh growth medium lacking EU. Compound or ASO treatment was performed at the same time of initial EU treatment, and compounds were replenished after replacing the medium to remove EU. Total RNA was extracted by using a Zymo Quick-RNA Miniprep Kit as per manufacturer's protocol with DNase treatment. The click reaction and pull-down of nascent RNA were performed as described in “In Vitro Chemical-Crosslinking and Isolation by Pull-down (Chem-CLIP) with Fluorescently Labeled RNA”. Reverse transcription (RT) was performed by using 300 ng total RNA and a QScript cDNA synthesis kit (QuantaBio) per manufacturer's protocols qPCR was performed in 384-well plates by using Power SYBR Green Master Mix (Life Technologies) on a QuantStudioS™ Cycler (Applied Biosystems) using the “Comparative Ct with Melt” method.

[2] = system: base paired (BP) mutant RNA lacking the U-bulge; assay: In vitro Chem-CLIP with Cy5-labeled mutant RNA; format: binding; settings: U-bulge mutated to A/U base pair
Experimental: In Vitro Chemical-Crosslinking and Isolation by Pull-down (Chem-CLIP) with Fluorescently Labeled RNA. Cy5-labeled RNA (100 μL, 2 μM) was folded by heating at 95° C. for 2 min in 1× Folding Buffer and cooled on ice. The RNA was then mixed with F1 at the indicated concentrations. The sample was irradiated with UV light (365 nm) for 15 min and then added to 100 μL of azide-disulfide agarose beads (Click Chemistry Tools, 1238-2) pre-washed with 200 μL of 25 mM HEPES, pH 7.0. A click reaction solution was prepared by mixing 30 μL of 250 mM sodium ascorbate, 30 μL of 10 mM CuSO4, and 30 μL of 50 mM THPTA, which was added to the sample. The sample was incubated while rotating at 37° C. for 2 h, briefly centrifuged, and then the supernatant was decanted. The beads were washed six times with 1× Washing Buffer (10 mM Tris-HCl, pH 7, 4 M NaCl, 1 mM EDTA, and 0.05% (v/v) Tween-20) following by incubation with 1× Releasing Buffer (50 mM TCEP and 100 mM K2CO3) at 37° C. for 30 min. An equivalent of iodoacetamide (200 mM) was added to the sample, which was incubated at 37° C. for an additional 30 min. The sample was briefly centrifuged and supernatant containing RNA was carefully transferred to a clean tube. Cy-5 fluorescence in the supernatant was measured with a Molecular Devices SpectraMax M5 plate reader with an excitation wavelength of 640 nm and an emission wavelength of 680 nm. […]

[3] = system: human transcriptome; assay: Chem-CLIP-Map-Seq transcriptome-wide target profiling in live MDA-MB-231 cells; format: cell-based; settings: 20 μM, 16 h
Experimental: Additional studies were performed in live MDA-MB-231 cells to profile the cellular targets as well as the small molecule binding site within them, via Chem-CLIP-Map-Seq,^21 which had not previously been applied transcriptome-wide. After treatment (20 μM; 16 h) and cross-linking, total RNA was harvested and fragmented prior to pull-down (FIG. 2A). Random fragmentation was completed first to: 1) reduce sequence bias in library preparation, 2) reduce background signal in the RNA-seq analysis; and 3) allow for only the regions bound by the small molecules to be pulled down rather than the entire transcript, identifying both the target and the binding site within it. In parallel, a control diazirine probe that lacks an RNA-binding functionality (FIG. 2B) was used to identify targets that non-specifically react with the cross-linking moiety, where cross-linking is not driven by the RNA-binding elements.
Genrich uses a null model with a log-normal distribution to calculate p values by comparing sequencing runs of the same RNA sample before and after pull-down.
Chemical-Cross-linking and Isolation by Pull-down (Chem-CLIP) in Live Cells. MDA-MB-231 cells were seeded in 60 mm dishes and allowed to reach ˜80% confluency. The cells were then treated with 20 μM of compound in growth medium and incubated for 16 h. Cells were washed with 1×DPBS and irradiated with UV light for 10 min. Total RNA was harvested using a Zymo Quick-RNA Miniprep Kit per the manufacturer's protocol with DNase treatment. Total RNA was chemically fragmented by using an NEBNext Magnesium RNA Fragmentation Module (E6150S) per manufacturer's protocol to achieve final lengths between 100-150 nucleotides Pull-down of cross-linked RNAs was performed by adding 10 μg of total RNA to 100 μL of azide-disulfide agarose beads (Click Chemistry Tools, 1238-2) pre-washed with 25 mM HEPES, pH 7.0. The click reaction and pull-down were completed as described in “In Vitro Chemical-Crosslinking and Isolation by Pull-down (Chem-CLIP) with Fluorescently Labeled RNA”. The pulled down RNA was purified by RNA CleanXP beads (Beckman, A66514) per manufacturer's protocol.
RNA-seq Library Preparation and Data Analysis. The quality of the pulled down RNA was analyzed by using an Agilent 2100 Bioanalyzer RNA nanochip as well as to confirm fragment lengths. RNA concentration was quantified by Qubit 2.0 Fluorometer (Invitrogen). The input RNA (200 ng) was depleted of ribosomal RNA with NEBNext rRNA Depletion Module (E6310) according to manufacturer's recommendations. Library preparation was performed with NEBNext Ultra II Directional RNA kit (E7760) per manufacturer's protocols. Briefly, the rRNA-depleted samples were reverse transcribed with random hexamer primers to generate first strand cDNA, followed by second strand synthesis with dUTP instead of dTTP. The cDNA was end repaired and adenylated at their 3′ ends, followed by adaptor ligation. The strand information of the RNA was preserved by using USER enzyme (Uracil-specific excision reagent) to degrade the second strand. The cDNA was then PCR amplified with barcoded Illumina-compatible primers to generate the final libraries. These libraries were loaded into a NextSeq 500 v2.5 flow cell and sequenced with 2×40 bp paired-end chemistry. All fastq files were aligned to the human genome by STAR.^9 The output bam files were processed by Genrich (v0.6.1, available at https://github.com/jsh58/Genrich) for peak calling to identify regions of enrichment (p<0.001 and False Discovery Rate=1%). Fold enrichment was calculated by Deeptool^10 and visualized by IGV browser.^11 A minimum read count of 5 and a minimum fold enrichment of 1.5 were applied filter to filter out low-confidence peaks.

## CCOC(=O)C1=C(Nc2ccccc2)S/C(=C\c2ccc(OCCOCCOCCOCCNC(=O)CCC(=O)N(C)[C@H]3CC[C@@H](c4ccc(Cl)c(Cl)c4)c4ccccc43)c(O)c2)C1=O [Compound F1-RIBOTAC]
[1]
  effect on SQSTM1 mRNA levels: No significant effect

## C#CCCC1(CCC(=O)N(C)[C@H]2CC[C@@H](c3ccc(Cl)c(Cl)c3)c3ccccc32)N=N1 [Compound F1]
[2]
  cross-linking / pull-down of mutant RNA: ablated
[3]
  largest enrichments (two transcripts): > 12 fold
  number of transcripts enriched after eliminating transcripts also bound by the control diazirine: 51
